Reference: the supplement of paper PMC10307832

Experiments:
Assay in all cases: relative viability (nuclei count vs DMSO), 5 days (fraction); higher = more cells survive
Idelalisib + Luminespib = compound: CC[C@H](Nc1ncnc2[nH]cnc12)c1nc2cccc(F)c2c(=O)n1-c1ccccc1 [Idelalisib] + CCNC(=O)c1noc(-c2cc(C(C)C)c(O)cc2O)c1-c1ccc(CN2CCOCC2)cc1 [Luminespib] (partner 0.01 µM)
Procedure, shortened: (§1)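 Lung cancer cell lines, seeded in 1536-well plates, were treated the following day by pin tool with a single drug or with five library-drug doses (not always all listed) in √10 steps on top of a fixed anchor-drug dose. Cells were fixed and nuclei stained in one step after 5 days, and nuclei were counted. Relative viability is the nuclei count for treated wells divided by that for vehicle wells, reported as medians of duplicate plates.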

Pemetrexed + Luminespib = compound: Nc1nc2[nH]cc(CCc3ccc(C(=O)N[C@@H](CCC(=O)O)C(=O)O)cc3)c2c(=O)[nH]1 [Pemetrexed] + CCNC(=O)c1noc(-c2cc(C(C)C)c(O)cc2O)c1-c1ccc(CN2CCOCC2)cc1 [Luminespib] (partner 0.01 µM)
Procedure, shortened: as §1

Pemetrexed + Vorinostat = compound: Nc1nc2[nH]cc(CCc3ccc(C(=O)N[C@@H](CCC(=O)O)C(=O)O)cc3)c2c(=O)[nH]1 [Pemetrexed] + O=C(CCCCCCC(=O)Nc1ccccc1)NO [Vorinostat] (partner 1 µM)
Procedure, shortened: as §1

Pemetrexed + Dasatinib = compound: Nc1nc2[nH]cc(CCc3ccc(C(=O)N[C@@H](CCC(=O)O)C(=O)O)cc3)c2c(=O)[nH]1 [Pemetrexed] + Cc1nc(Nc2ncc(C(=O)Nc3c(C)cccc3Cl)s2)cc(N2CCN(CCO)CC2)n1 [Dasatinib] (partner 0.075 µM)
Procedure, shortened: as §1

Cell Line	relative viability (Idelalisib + Luminespib; first compound 0.04 µM)	relative viability (Idelalisib + Luminespib; first compound 0.1265 µM)	relative viability (Idelalisib + Luminespib; first compound 0.4 µM)	relative viability (Idelalisib + Luminespib; first compound 1.265 µM)	relative viability (Idelalisib + Luminespib; first compound 4 µM)	relative viability (Pemetrexed + Luminespib; first compound 0.002 µM)	relative viability (Pemetrexed + Luminespib; first compound 0.006325 µM)	relative viability (Pemetrexed + Luminespib; first compound 0.02 µM)	relative viability (Pemetrexed + Luminespib; first compound 0.06325 µM)	relative viability (Pemetrexed + Luminespib; first compound 0.2 µM)	relative viability (Pemetrexed + Vorinostat; first compound 0.002 µM)	relative viability (Pemetrexed + Vorinostat; first compound 0.006325 µM)	relative viability (Pemetrexed + Vorinostat; first compound 0.02 µM)	relative viability (Pemetrexed + Vorinostat; first compound 0.06325 µM)	relative viability (Pemetrexed + Vorinostat; first compound 0.2 µM)	relative viability (Pemetrexed + Dasatinib; first compound 0.002 µM)	relative viability (Pemetrexed + Dasatinib; first compound 0.006325 µM)	relative viability (Pemetrexed + Dasatinib; first compound 0.02 µM)	relative viability (Pemetrexed + Dasatinib; first compound 0.06325 µM)	relative viability (Pemetrexed + Dasatinib; first compound 0.2 µM)
SW 900	0.21	0.193	0.152	0.183	0.165	0.198	0.147	0.18	0.181	0.158	0.499	0.523	0.682	0.576	0.406	0.637	0.602	0.657	0.449	0.477
PC-3 [JPC-3]	0.487	0.65	0.69	0.65	0.497	0.678	0.79	0.702	0.715	0.758	0.628	1.15	0.837	0.922	0.782	0.845	0.988	1.03	0.983	0.941
EPLC-272H	0.521	0.291	0.309	0.265	0.325	0.265	0.153	0.27	0.321	0.536	0.519	0.398	0.544	0.308	0.288	0.328	0.382	0.419	0.299	0.297
NCI-H1792	0.408	0.434		0.679	0.33	0.578	0.51	0.539	0.476	0.45						0.782	0.789	0.938	0.747	0.81
NCI-H2085	0.422	0.409	0.374	0.487	0.257	0.386	0.304	0.449	0.414	0.427	0.763	0.775	0.897	0.817	0.806	0.23	0.228	0.291	0.23	0.242
LK-2	0.177	0.142		0.196	0.178	0.179	0.181	0.187	0.165	0.208	0.312	0.313	0.254	0.297	0.338	0.289	0.198	0.318	0.341	0.254
NCI-H1395	0.675	0.72	0.662	0.694	0.645	0.8	0.718	0.678	0.528	0.758	0.513	0.871	0.959	0.7	0.738	0.441	0.471	0.481	0.369	0.401
ABC-1	0.466	0.643		0.521	0.497		0.521	0.709	0.777	0.637	1.07	1.68	1.18	1.33	1.1	0.785	0.591	0.626	0.546	0.422
RERF-LC-KJ	1.31	1.33	1.12	1.19	1.07	1.39	1.28	1.38	1.21	0.831	0.621	0.581	0.762	0.597	0.5	0.767	0.881	0.856	0.849	0.382
LU99A	0.217	0.274	0.238	0.285	0.243	0.264	0.233	0.318	0.261	0.19	0.488	0.464	0.495	0.466	0.385	0.504	0.441	0.459	0.516	0.542
NCI-H650	0.894	0.703	0.648	0.869	0.765	0.751	0.733	0.732	0.705	0.842	0.378	0.552		0.427	0.453	0.408	0.469	0.431	0.444	0.481
NCI-H2347	0.506	0.581	0.448	0.362	0.532	0.0507	0.281	0.551	0.55	0.381	0.49	0.487	0.609	0.468	0.436	0.269	0.169	0.351	0.319	0.272
HARA	0.778	0.642	0.613	0.683	0.6	0.554	0.751	1.19	0.855	0.165	0.517	0.611	0.512	0.595	0.231	0.231	0.237	0.327	0.2	0.162
NCI-H2228	0.0989	0.17	0.16	0.175	0.133	0.18		0.153	0.115	0.124	0.807	0.493	0.749	0.413	0.296	0.444		0.472	0.337	0.2
EKVX	0.703	0.916	0.723	0.804	0.814	0.968	0.876	0.977	0.816	0.784	0.683	0.654	0.724	0.793	0.557	0.572	0.544	0.615	0.336	0.479
HCC-827	1.18	0.545	0.478	0.249	0.374	0.541	0.633	0.856	0.724	0.382	0.764	0.912	0.959	0.515	0.426	0.369	0.287	0.349	0.362	0.339
NCI-H1755	0.331	0.339	0.449	0.699	0.293	0.421	0.594	0.631	0.415	0.437	0.716	0.813	0.776	0.751	0.624	0.397	0.409	0.448	0.436	0.379
NCI-H661	0.985	0.907	0.85	0.987	1.04	0.958	0.882	0.934	0.884	0.85	0.761	0.72	0.821	0.8	0.745	0.882	0.84	0.958	0.945	0.827

Cell Line	relative viability (Idelalisib + Luminespib; first compound 0.04 µM)	relative viability (Idelalisib + Luminespib; first compound 0.1265 µM)	relative viability (Idelalisib + Luminespib; first compound 0.4 µM)	relative viability (Idelalisib + Luminespib; first compound 1.265 µM)	relative viability (Idelalisib + Luminespib; first compound 4 µM)	relative viability (Pemetrexed + Luminespib; first compound 0.002 µM)	relative viability (Pemetrexed + Luminespib; first compound 0.006325 µM)	relative viability (Pemetrexed + Luminespib; first compound 0.02 µM)	relative viability (Pemetrexed + Luminespib; first compound 0.06325 µM)	relative viability (Pemetrexed + Luminespib; first compound 0.2 µM)	relative viability (Pemetrexed + Vorinostat; first compound 0.002 µM)	relative viability (Pemetrexed + Vorinostat; first compound 0.006325 µM)	relative viability (Pemetrexed + Vorinostat; first compound 0.02 µM)	relative viability (Pemetrexed + Vorinostat; first compound 0.06325 µM)	relative viability (Pemetrexed + Vorinostat; first compound 0.2 µM)	relative viability (Pemetrexed + Dasatinib; first compound 0.002 µM)	relative viability (Pemetrexed + Dasatinib; first compound 0.006325 µM)	relative viability (Pemetrexed + Dasatinib; first compound 0.02 µM)	relative viability (Pemetrexed + Dasatinib; first compound 0.06325 µM)	relative viability (Pemetrexed + Dasatinib; first compound 0.2 µM)
NCI-H1944	0.809	0.621	0.609	0.636	0.532		0.752	0.72	0.734	0.69	0.43	0.487	0.565	0.592	0.531		0.201	0.195	0.212	0.217
NCI-H23	0.219	0.221			0.196	0.216	0.202	0.22	0.201	0.211	0.464	0.592	0.77	0.713	0.62	0.783	0.762	0.933	0.74	0.781
NCI-H1648											0.397	0.138	0.399	0.465	0.551					
NCI-H522	1.13		1.21	1.12	1.23	1.21	1	1.29	1.12	1.24	0.801	0.871	1.09	0.797	0.927	0.881	0.822	0.967	0.848	0.933
HCC-366											0.208	0.341	0.393	0.386	0.269	0.574	0.613	0.683	0.71	0.527
ChaGo-K-1	0.558	0.632	0.516	0.523	0.537	0.582	0.577	0.608	0.47	0.239	0.721	0.735	0.751	0.293	0.233	0.59	0.555	0.591	0.266	0.237
LCLC-97TM1	0.82	0.738	0.708	0.818	0.607	0.906	0.74	0.81	0.761	0.65	0.711	0.559	0.765	0.803	0.163	0.743	0.892	0.967	0.797	0.588
EMC-BAC-2	1.34	1.24	1.03	1.25	1.13	1.15	1.1	1.11	1.06	1.18	0.397	0.734	0.539	0.402	0.256	0.161	0.344	0.32	0.331	0.27
NCI-H1623	0.461	0.494	0.394	0.381	0.516	0.628	0.325	0.503	0.443	0.613						0.511	0.539	0.458	0.517	0.509
NCI-H441	0.365	0.354	0.308	0.308	0.316	0.35	0.328	0.33	0.393	0.328	0.693	0.788	0.763	0.695	0.262	0.429	0.573	0.556	0.392	0.273
LCLC-103H	0.998	0.731	0.757	0.933	0.794	0.963	0.942	1.02	0.796	0.94	0.663	0.753	0.857	0.881	0.763	0.43	0.508	0.55	0.436	0.489
HOP-62	1.03	0.875	0.83	1.08	0.926	0.85	0.936	0.851	0.814	0.932	0.387	0.581	0.721	0.626	0.547	0.522	0.636	0.659	0.674	0.629
NCI-H1793	0.208	0.253	0.166	0.179	0.183	0.397	0.201	0.152	0.118	0.237	0.613	0.792	0.69	0.986	0.796	0.312	0.294	0.46	0.375	0.412
NCI-H1355	0.672	0.779	0.531	0.628	0.602	0.737	0.662	0.656	0.693	0.715	0.526	0.603	0.667	0.599	0.62	0.612	0.692	0.703	0.748	0.752
HCC-44	1.25	1.06	0.852	1.18	1.05	1.08	1.03	1.09	0.918	0.666	0.972	1.11	1.14	1.11	1.13					
IA-LM											0.95	0.988	1.1	0.808	0.982					
NCI-H1563	0.562	0.543	0.557	0.519	0.5	0.496	0.505	0.562	0.481	0.569						0.24	0.453	0.486	0.426	0.492
HCC-78												0.447	0.401	0.294	0.328	0.305	0.453	0.363	0.241	0.246
